Test results: patent EP1137645B1, “ALPHA-METHYLBENZYL-CONTAINING THIOUREA INHIBITORS OF HERPES VIRUSES CONTAINING A […] GROUP” (Wyeth, priority 1998, dated 2000)
Values after ≈ are worked out from the molar mass of the structure shown. Where two headings read alike, the source gives them in different places.

Tests used:
VZV strain Ellen = assay: VZV antiviral (ELISA) assay; assay type: cell-based
Procedure: For the generation of stock VZV to be used in the assay, VZV strain Ellen (ATCC #VR-1367) is used to infect human foreskin fibroblast (HFF) cells at low multiplicity (less than 0.1) and incubated overnight at 37°C in 5% CO2. After the overnight incubation, the mixture of uninfected and VZV-infected HFF infected cells are then harvested and added to each well of 96-well plates (3.5x10^4 cells in 100 µl DMEM supplemented with 2% FBS) which contain test compound or the reference standard drug control (in 100µl DMEM supplemented with 2% FBS per well). These cells are incubated for three days at 37°C in 5% CO2, then fixed for ELISA assay. The primary antibody is murine anti-VZV glycoprotein II monoclonal antibody (Applied Biosystems, Inc. #13-145-100) and the secondary antibody is goat anti-mouse IgG linked to β-galactosidase. Thus the extent of viral replication is determined by assessing β-galactosidase activity by quantifying the generation of the 4-methyl umbelliferone fluorescent cleavage product after addition of the methyl umbelliferyl-β-D-galactoside (Sigma #M1633) substrate on a microfluorimeter (365nm for excitation and 450nm for emission). Antiviral activity (IC50) of the test compound is determined by comparing the flourescence obtained in absence of compound to that obtained in the presence of compound.

[1] = tested on: HCMV recombinant mutant virus whose genome contains the prokaryotic beta-glucuronidase gene; assay: microbe, parasite or virus in culture; assay type: cell-based, human cytomegalovirus; conditions: for IC50: Human betaherpesvirus 5, Fibroblast
From the text: Microtiter plate assay. Ninety-six well plate cultures of human foreskin fibroblasts are infected in the presence of inhibitor compound with a HCMV recombinant mutant virus whose genome contains the prokaryotic beta-glucuronidase gene (Jefferson, R. A., S. M. Burgess, and D. Hirsh. 1986. Beta-glucuronidase from Escherichia coli as a gene fusion marker. Proc. Natl. Acad. Sci. USA 83:8447-8451) whose expression is controlled by a viral promoter. An example of such a virus is RV145 (Jones, T. R., V. P. Muzithras, and Y. Gluzman. 1991. Replacement mutagenesis of the human cytomegalovirus genome: US10 and US11 gene products are nonessential. J. Virol. 65:5860-5872). Since it is under the control of a viral promoter, beta-glucuronidase expression is an indirect indicator of growth and replication of HCMV in this assay. At 96 hours post-infection, the infected cell lysates are prepared (using 50mM sodium phosphate [pH7.0] containing 0.1% Triton X-100 and 0.1% sarkosyl) and assayed for beta-glucuronidase activity using a substrate for the enzyme which when cleaved yields either a product which can be measured colorimetrically in a spectrophotometer or fluorescently in a microfluorimeter. Examples of such substrates are p-nitrophenyl-beta-D-glucuronide and methylumbelliferylglucuronide, respectively. The presence of an antiviral compound is indicated by the reduced expression of the HCMV genome resident beta-glucuronidase gene, compared to the absence of inhibitor. […] Data from this assay generated using varying amounts of inhibitor compound is also used to estimate the IC50 of an inhibitor compound.

[2] = Human alphaherpesvirus 3, HFF, read-out: IC50 (ug/ml) VZV, VZV strain Ellen, HFF cells, ELISA
[3] = read-out: IC50 ug/ml HCMV, HCMV, human foreskin fibroblasts
[4] = Human alphaherpesvirus 3, VZV strain Ellen, HFF cells, ELISA, read-out: IC50 (ug/ml) VZV

| Compound | IC50 (VZV strain Ellen; [2]) [µg/mL] | IC50 [1, 3] [µg/mL] | IC50 (VZV strain Ellen; [4]) [µg/mL] | other results |
| --- | --- | --- | --- | --- |
| O=C(Nc1ccc(NC(=S)Nc2cc(N3CCCC3)cc(C(F)(F)F)c2)cc1)c1ccccc1F [Example 566, 2-Fluoro-N-{4-[3-(3-pyrrolidin-1-yl-5-trifluoromethyl-phenyl)-thioureido]-phenyl}-benzamide] | 2 (≈ 3.98 µM) | > 0.5 |  |  |
| CN(C)c1cc(NC(=S)Nc2ccc(NC(=O)c3ccccc3F)cc2)cc(C(F)(F)F)c1 [Example 567, N-{4-[3-(3-Dimethylamino-5-trifluoromethyl-phenyl)-thioureido]-phenyl}-2-fluoro-benzamide] |  |  | 2 (≈ 4.2 µM) | IC50 ([1]; read-out: IC50 ug/ml HCMV): > 0.5 µg/mL |
| O=C(Nc1ccc(NC(=S)Nc2cc(N3CCOCC3)cc(C(F)(F)F)c2)cc1)c1ccccc1F [Example 568, 2-Fluoro-N-{4-[3-(3-morpholin-4-yl-5-trifluoromethyl-phenyl)-thioureido]-phenyl}-benzamide] | 2.3 (≈ 4.44 µM) | > 0.5 |  |  |
| CN1CCN(c2cc(NC(=S)Nc3ccc(NC(=O)c4ccccc4F)cc3)cc(C(F)(F)F)c2)CC1 [Example 569, 2-Fluoro-N-(4-{3-[3-(4-methyl-piperazin-1-yl)-5-trifluoromethyl-phenyl]-thioureido}-phenyl)-benzamide] | 3 (≈ 5.64 µM) | > 0.5 |  |  |
| O=C(Nc1ccc(NC(=S)Nc2cc(N3CCCCC3)cc(C(F)(F)F)c2)cc1)c1ccccc1F [Example 570, 2-Fluoro-N-{4-[3-(3-piperidin-1-yl-5-trifluoromethyl-phenyl)-thioureido]-phenyl}-benzamide] | > 10 | > 0.5 |  |  |
| O=C(Nc1ccc(NC(=S)NCCc2ccccc2)cc1)c1ccccc1F [Example 576, 2-Fluoro-N-[4-(3-phenethyl-thioureido)-phenyl]-benzamide] |  |  | 8 (≈ 20.3 µM) | IC50 ([1]; read-out: IC50 ug/ml HCMV): > 0.5 µg/mL |
| CCC(C)Cc1cc(NC(=S)Nc2ccc(NC(=O)c3ccccc3F)cc2)cc(C(F)(F)F)c1 (stereo not shown) [Example 577, 2-Fluoro-N-(4-{3-[3-(2-methyl-butyl)-5-trifluoromethyl-phenyl]-thioureido}-phenyl)-benzamide] | > 7.5 |  |  |  |
| CC(C)Cc1cc(NC(=S)Nc2ccc(NC(=O)c3ccccc3F)cc2)cc(C(F)(F)F)c1 [Example 578, 2-Fluoro-N-{4-[3-(3-isobutyl-5-trifluoromethyl-phenyl)-thioureido]-phenyl}-benzamide] | > 10 |  |  |  |
| O=C(Nc1ccc(NC(=S)NCc2cc(F)cc(F)c2)cc1)c1ccccc1F [Example 580, N-{4-[3-(3,5-Difluoro-benzyl)-thioureido]-phenyl}-2-fluoro-benzamide] |  |  | > 10 |  |
| O=C(Nc1ccc(NC(=S)NCc2cc(Cl)cc(Cl)c2)cc1)c1ccccc1F [Example 583, N-{4-[3-(3,5-Dichloro-benzyl)-thioureido]-phenyl}-2-fluoro-benzamide] | 10 (≈ 22.3 µM) |  |  |  |
| O=C(Nc1ccc(NC(=S)NCc2cc(F)cc(C(F)(F)F)c2)cc1)c1ccccc1F [Example 586, 2-Fluoro-N-{4-[3-(3-fluoro-5-trifluoromethyl-benzyl)-thioureido]-phenyl}-benzamide] |  |  | > 10 |  |
| CN(C)c1ccc(CNC(=S)Nc2ccc(NC(=O)c3ccccc3F)cc2)cc1C(F)(F)F [Example 610, N-{4-[3-(4-Dimethylamino-3-trifluoromethyl-benzyl)-thioureido]-phenyl}-2-fluoro-benzamide] | > 10 | > 0.5 |  |  |
| O=C(Nc1ccc(NC(=S)NCc2ccc(N3CCCCC3)c(C(F)(F)F)c2)cc1)c1ccccc1F [Example 616, 2-Fluoro-N-{4-[3-(4-piperidin-1-yl-3-trifluoromethyl-benzyl)-thioureido]-phenyl}-benzamide] | > 10 |  |  |  |
| O=C(Nc1ccc(NC(=S)NCc2ccc(F)c(C(F)(F)F)c2)cc1)c1ccccc1F [Example 623, 2-Fluoro-N-{4-[3-(4-fluoro-3-trifluoromethyl-benzyl)-thioureido]-phenyl}-benzamide] |  |  | > 10 |  |
| O=C(Nc1ccc(NC(=S)NCCOc2ccccc2)cc1)c1ccccc1F [Example 625, 2-Fluoro-N-{4-[3-(2-phenoxy-ethyl)-thioureido]-phenyl}-benzamide] |  |  | 4 (≈ 9.77 µM) |  |
| CC(NC(=S)Nc1ccc(NC(=O)c2ccccc2I)cc1)c1ccc(F)cc1 (stereo not shown) [Example 812, N-(4-{3-[1-(4-Fluoro-phenyl)-ethyl]-thioureido}-phenyl)-2-iodo-benzamide] |  |  | 3.4 (≈ 6.55 µM) |  |
| CN1CCC(N(C)c2ccc(NC(=S)Nc3ccc(NC(=O)c4ccccc4F)cc3)cc2Cl)CC1 [Example 855, N-[4-(3-{3-Chloro-4-[methyl-(1-methyl-piperidin-4-yl)-amino]-phenyl}-thioureido)-phenyl]-2-fluoro-benzamide] |  |  | > 10 | inhibition at 10 µg/mL (VZV strain Ellen; Human alphaherpesvirus 3, read-out: % inhibition 10 ug/ml VZV, 10 ug/ml, VZV strain Ellen, HFF cells, ELISA): 52%; IC50 ug/ml HCMV ([1]; HCMV, human foreskin fibroblasts): 0.7 µg/mL (≈ 1.33 µM) |
| CC(NC(=S)Nc1ccc(NC(=O)c2cc3ccccc3cn2)cc1)c1ccc(F)cc1 (stereo not shown) [Example 984, Isoquinoline-3-carboxylic acid (4-{3-[1-(4-fluoro-phenyl)-ethyl]-thioureido}-phenyl)-amide] | 0.08 (≈ 0.18 µM) | 1.5 (≈ 3.37 µM) |  |  |
| CC(NC(=S)Nc1ccc(NC(=O)c2ccccc2C(F)(F)F)cc1)c1ccc(F)cc1 (stereo not shown) [Example 992, N-(4-{3-[1-(4-Fluoro-phenyl)-ethyl]-thioureido}-phenyl)-2-trifluoromethyl-benzamide] |  |  | 1.2 (≈ 2.6 µM) | IC50 ([1]; read-out: IC50 ug/ml HCMV): 4 µg/mL (≈ 8.67 µM) |
| CC(NC(=S)Nc1ccc(NC(=O)c2ccccc2C#N)cc1)c1ccc(F)cc1 (stereo not shown) [Example 993, 2-Cyano-N-(4-{3-[1-(4-fluoro-phenyl)-ethyl]-thioureido}-phenyl)-benzamide] |  |  | 2.7 (≈ 6.45 µM) |  |
| C[C@@H](NC(=S)Nc1ccc(NC(=O)c2ccccc2F)cc1)c1ccc(Br)cc1 [Example 1005, N-(4-{3-[(1R)-1-(4-Bromo-phenyl)-ethyl]-thioureido}-phenyl)-2-fluoro-benzamide] | 4.3 (≈ 9.1 µM) | 2.1 (≈ 4.45 µM) |  |  |
| CC(NC(=S)Nc1ccc(NC(=O)c2ccccc2F)cc1)c1ccc(Br)cc1 (stereo not shown) [Example 1102, N-(4-{3-[1-(4-Bromo-phenyl)-ethyl]-thioureido}-phenyl)-2-fluoro-benzamide] | 0.2 (≈ 0.423 µM) | 1.7 (≈ 3.6 µM) |  |  |
| C[C@H](NC(=S)Nc1ccc(NC(=O)c2ccc(F)cc2)cc1)c1ccc(Br)cc1 [Example 1103, N-(4-{3-[(1S)-1-(4-Bromo-phenyl)-ethyl]-thioureido}-phenyl)-4-fluoro-benzamide] | 0.47 (≈ 0.995 µM) | 3.4 (≈ 7.2 µM) |  |  |
| COc1ccccc1C(=O)Nc1ccc(NC(=S)N[C@@H](C)c2ccc(Br)cc2)cc1 [Example 1104, N-(4-{3-[(1S)-1-(4-Bromo-phenyl)-ethyl]-thioureido}-phenyl)-2-methoxy-benzamide] | 0.09 (≈ 0.186 µM) | 4.9 (≈ 10.1 µM) |  |  |
| COc1ccccc1C(=O)Nc1ccc(NC(=S)N[C@H](C)c2ccc(Br)cc2)cc1 [Example 1105, N-(4-{3-[(1R)-1-(4-Bromo-phenyl)-ethyl]-thioureido}-phenyl)-2-methoxy-benzamide] | > 7.5 | 2.5 (≈ 5.16 µM) |  |  |
| CC(NC(=S)Nc1ccc(NC(=O)c2ccccc2F)cc1)c1ccc(C(F)(F)F)cc1F (stereo not shown) [Example 1106, 2-fluoro-N-(4-{[({1-[2-fluoro-4-(trifluoromethyl)phenyl]ethyl}amino)carbothioyl]amino}phenyl)benzamide] |  |  | > 7.5 | IC50 ([1]; read-out: IC50 ug/ml HCMV): 1.1 µg/mL (≈ 2.29 µM) |
| C[C@H](NC(=S)Nc1ccc(NC(=O)c2nccc3ccccc23)cc1)c1ccc(Br)cc1 [Example 1107, Isoquinoline-1-carboxylic acid (4-{3-[(1S)-1-(4-bromo-phenyl)-ethyl]-thioureido}-phenyl)-amide] | 0.05 (≈ 0.0989 µM) | 8.1 (≈ 16 µM) |  |  |
| C[C@H](NC(=S)Nc1ccc(NC(=O)c2cc3ccccc3cn2)cc1)c1ccc(Br)cc1 [Example 1108, Isoquinoline-3-carboxylic acid (4-{3-[(1S)-1-(4-bromo-phenyl)-ethyl]-thioureido}-phenyl)-amide] | 0.05 (≈ 0.0989 µM) | 2.3 (≈ 4.55 µM) |  |  |
| C[C@H](NC(=S)Nc1ccc(NC(=O)c2nccc3ccccc23)cc1)c1ccc(Cl)cc1 [Example 1109, Isoquinoline-1-carboxylic acid (4-{3-[(1S)-1-(4-chloro-phenyl)-ethyl]-thioureido) -phenyl)-amide] |  |  | 0.03 (≈ 0.0651 µM) | IC50 ([1]; read-out: IC50 ug/ml HCMV): 4.4 µg/mL (≈ 9.54 µM) |
